Laboratory results from PMC10526139, “Molecular and Pharmacokinetic Aspects of the Acetylcholinesterase-Inhibitory Potential of the Oleanane-Type Triterpenes and Their Glycosides” (Biomolecules, 2023).

Tests used:
[1] = target: T1, AChE from electric eel type VI-S (Electrophorus electricus, UniProt O42275); test: TLC-bioautography assay towards AChE inhibition; type: biochemical
T1 construct: purchased Sigma Aldrich
Experimental: Six standards of oleanane-type triterpenes: arjunic acid, arjunolic acid, arjungenin, arjunglucoside I, sericic acid and arjunetin—purchased from Sigma Aldrich (St. Louis, MO, USA)—were prepared at the concentration of 1 mg/mL in double-distilled water: methanol (50:50 v/v) and they were applied separately at the surface of the aluminum normal phase 10 cm × 10 cm TLC plate (Silica gel 60 F254, Merck, Darmstadt, Germany) with an autosampler (Camag, Muttenz, Switzerland) as the 6 mm zones, distant from one another by 1.5 cm horizontally and 2 cm vertically. Every reference solution was applied as 4, 6, 8 and 10 µL volume bands on three TLC plates.
The TLC plates were later subjected to the enzymatic assay according to the previously published protocol, with some modifications.
As the TLC plate was not developed in a TLC solvent system but was used directly in the TLC bioautographic assay, the authors modified the previously published protocol and sprayed the TLC with the substrate (2-naphtyl acetate; Sigma Aldrich, St. Louis, […], USA) dissolved in distilled water at the quantity of 30 mg/20 mL. The TLC was dried in cold air and later the solution of the AChE enzyme (AChE from electric eel type VI-S, Sigma Aldrich, St. Louis, […], USA) dissolved in the aqueous solution of Tris-HCl buffer (pH 7.8; Sigma Aldrich, St. Louis, […], USA) with […] (500 mg/100 mL, Sigma Aldrich, St. Louis, […], USA) at the quantity of 3 U/mL was sprayed on the TLC plate and incubated at the temperature of 37 °C for the following 20 min in a humid incubator. In the next step, the Fast Blue B (Sigma Aldrich, St. Louis, […], USA) solution (0.615 mg/mL) was sprayed on the plate and visualized active zones as white spots against the violet background. The area of the discolored zones corresponded to the inhibitory strength of the respective zones.
Finally, the TLC plate was dried in the air and analyzed by a Camag TLC visualizer (Camag, Muttenz, Switzerland) under visible light. The peak areas of the discolored zones were automatically calculated by the WinCats program (version 1.4, Camag, Muttenz, Switzerland) and their size was compared to calculate the IC50 values that corresponded to the concentration of the standard giving the half maximum inhibition of the AChE enzyme.

[2] = test system: AChE; conditions: AChE inhibition; cited from earlier work

T1 sequence (O42275 24-633): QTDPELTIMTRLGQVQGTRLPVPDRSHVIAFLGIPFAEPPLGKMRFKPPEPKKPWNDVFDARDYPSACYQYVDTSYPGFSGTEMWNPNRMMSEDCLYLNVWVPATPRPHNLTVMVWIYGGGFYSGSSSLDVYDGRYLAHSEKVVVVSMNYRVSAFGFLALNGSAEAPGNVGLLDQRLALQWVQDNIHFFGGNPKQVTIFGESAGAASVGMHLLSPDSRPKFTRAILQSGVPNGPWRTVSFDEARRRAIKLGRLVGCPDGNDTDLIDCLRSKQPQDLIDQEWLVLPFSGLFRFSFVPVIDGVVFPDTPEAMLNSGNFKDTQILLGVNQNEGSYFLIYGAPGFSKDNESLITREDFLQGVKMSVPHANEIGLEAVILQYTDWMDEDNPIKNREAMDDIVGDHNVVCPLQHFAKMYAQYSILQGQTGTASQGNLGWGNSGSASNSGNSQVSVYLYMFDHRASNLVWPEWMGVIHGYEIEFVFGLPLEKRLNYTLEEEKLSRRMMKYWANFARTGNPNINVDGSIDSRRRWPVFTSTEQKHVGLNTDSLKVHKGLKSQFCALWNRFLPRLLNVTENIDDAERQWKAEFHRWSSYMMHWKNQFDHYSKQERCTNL

Row | Compound | IC50 [1] | IC50 [2]
1 | CC1(C)CC[C@]2(C(=O)O[C@@H]3O[C@H](CO)[C@@H](O)[C@H](O)[C@H]3O)CC[C@]3(C)C(=CC[C@@H]4[C@@]5(C)C[C@@H](O)[C@H](O)C(C)(C)[C@@H]5CC[C@]43C)[C@@H]2[C@@H]1O [Arjunetin] | 18.8 µM | 
2 | CC1(C)CC[C@]2(C(=O)O)CC[C@]3(C)C(=CC[C@@H]4[C@@]5(C)C[C@@H](O)[C@H](O)[C@@](C)(CO)[C@@H]5CC[C@]43C)[C@@H]2[C@@H]1O [Arjungenin] | 19.5 µM | 
3 | CC1(C)CC[C@]2(C(=O)O[C@@H]3O[C@H](CO)[C@@H](O)[C@H](O)[C@H]3O)CC[C@]3(C)C(=CC[C@@H]4[C@@]5(C)C[C@@H](O)[C@H](O)[C@@](C)(CO)[C@@H]5CC[C@]43C)[C@@H]2[C@@H]1O [Arjunglucoside I] | 13.2 µM | 
4 | CC1(C)CC[C@]2(C(=O)O)CC[C@]3(C)C(=CC[C@@H]4[C@@]5(C)C[C@@H](O)[C@H](O)C(C)(C)[C@@H]5CC[C@]43C)[C@@H]2[C@@H]1O [Arjunic acid] | 20.7 µM | 
5 | CC1(C)CC[C@]2(C(=O)O)CC[C@]3(C)C(=CC[C@@H]4[C@@]5(C)C[C@@H](O)[C@H](O)[C@@](C)(CO)[C@@H]5CC[C@]43C)[C@@H]2C1 [Arjunolic acid] | 16.2 µM | 
6 | CC1(C)CC[C@]2(C(=O)O)CC[C@]3(C)C(=CC[C@@H]4[C@@]5(C)C[C@@H](O)[C@H](O)[C@](C)(CO)[C@@H]5CC[C@]43C)[C@@H]2[C@@H]1O [Sericic acid] | 16.4 µM | 
7 | C[C@H]1[C@H](C)CC[C@]2(C(=O)O)CC[C@]3(C)C(=CC[C@@H]4[C@@]5(C)C[C@@H](O)[C@H](O)[C@@](C)(CO)[C@@H]5CC[C@]43C)[C@H]12 [asiatic acid] |  | 15.05 ± 0.05 µM
